According to PMC7157241, “Phenotypic Drug Discovery for Human African Trypanosomiasis: A Powerful Approach” (Tropical Medicine and Infectious Disease, 2020):
Read-outs that look alike come from different tables or passages of the source. Marks after values point to notes of the source that are not given here. Blank lines part the entries; values can stand above or below the compound they belong to.

Tests used:
[1] = test system: T. brucei brucei (strain BF427); assay: In vitro parasite growth arrest assay (AlamarBlue); format: cell-based, Trypanosoma brucei brucei
Experimental: Follow up compounds were tested for antiparasitic activity on T. brucei brucei (strain BF427). Parasites were tested in triplicate in the presence of serial dilutions of compound, and growth was quantified with AlamarBlue.

[2] = Mammalian cell cytotoxicity assay (AlamarBlue, 48 h); format: cell-based; settings: human
Experimental: Compounds were tested for cytotoxicity against CRL-8155 cells (human lymphoblasts). Cells were grown in culture with serial dilutions of compounds for 48 h and cytotoxicity was assayed using AlamarBlue (Life Technologies, Carlsbad, California CA, USA).

[3] = Brain permeability studies in mice (brain to plasma ratio); format: in vivo, mouse; settings: for Kp at 60 min / Kp at 1 h: mouse, 5 mg/kg; for Kp at 60 min: read-out: B/P Ratio (Mouse)
Experimental: Test compounds were injected (ip) at 5 mg/kg to three mice in a vehicle consisting of DMSO (5%), Tween 80 (7%), and EtOH (3%) in physiological saline (0.9%) solution [8]. At 1 h post injection, blood was collected, and plasma was separated by centrifugation. Simultaneously, the brain was removed and homogenized in acetonitrile. Concentrations of compound in the plasma and brain were determined via liquid chromatography/tandem mass spectrometry. Calculations of brain levels accounted for 3% volume/weight of blood in the brain.
The long-term goal of the project was to develop a drug for treatment of HAT including late-stage disease involving the central nervous system. […] To assess this, the sixteen hit compounds were injected […] and mice were sacrificed at 60 min (n = 3 mice) for the simultaneous collection of plasma and whole brains for the quantification of compound concentrations. Eleven compounds (1–10, 12) had brain levels of at least 25% of plasma levels and were considered candidates for development. One compound (11) had modest brain permeability of 9%, but was included for further chemistry despite this marginal activity. Four compounds (13–15, 17) had minimal concentrations in the brain (< 2% of plasma levels) and were no longer pursued.

[4] = Mouse liver microsome stability; settings: for half-life: mouse, liver microsomes
[5] = Single dose oral pharmacokinetic study in mice; format: in vivo; settings: mouse, oral gavage 50 mg/kg
Experimental: Test compounds were administered to mice by oral gavage followed by blood sampling at intervals of 30, 60, 120, 240, 360, 480, and 1440 min [5, 7]. Compounds were dosed orally at 50 mg/kg in 0.2 mL of dosing solution (7% Tween 80, 3% ethanol, 5% DMSO, 0.9% saline). Experiments were performed with groups of three mice per compound as published. Plasma was separated and extracted with acetonitrile for measurements of the compound concentrations by liquid chromatography/tandem mass spectrometry.
New compounds had T. brucei EC50, mammalian host cell cytotoxicity (CC50), and aqueous solubility assayed per our screening cascade (Figure 2). The cut-off values for further advancement are shown. […] The screening results were continuously reviewed by the chemistry group to define structure activity relationships (SAR). […] Mice were administered compounds by oral gavage at 50 mg/kg and whole blood samples were collected on blotting cards at serial time points. The parameters of maximum blood concentration (Cmax) and the concentration of compound integrated over time (area under curve, AUC) were of primary interest. The general rule was to attain plasma concentrations 10 times above the T. brucei EC50 value for at least eight hours. […]

[6] = microsomes
[7] = Human microsome stability; format: in vitro ADME; settings: microsomes, Figure 3, read-out: Human microsome t½
[8] = Brain permeability studies in mice (brain to plasma ratio); format: in vivo; settings: mouse, 5 mg/kg
[9] = set-up: method as in PMID 28835807; settings: data are for close analog of Scaffold 9 parent (parent had poor ionization in MS); 60 min following IP dose; cited from earlier work
[10] = test system: T. b. brucei (strain TREU667); assay: Anti-parasite efficacy in mice (chronic model); format: in vivo, mouse; settings: chronic infection model (unpublished)
Experimental: Groups of six to eight mice were infected with 1 × 10^4 T. b. brucei (strain TREU667) to establish a chronic infection. Treatment began on day 21 post-infection, and mice received 50 mg/kg test compound orally twice per day for 10 days (total of 20 doses) in a 200 μL volume of vehicle. A control group received the vehicle with no compound and another control group received a single intraperitoneal dose of diminazene aceturate at 10 mg/kg on day 21. […] After dosing, parasitemia was monitored via microscopic examination of tail blood slides until 180 days post-infection. Mice were removed from the experiment when parasites were detected in the blood.

[11] = test system: T. brucei rhodesiense STIB 900 strain; settings: acute infection model; cited from earlier work
[12] = test system: T. b. brucei (strain TREU667); set-up: method as in PMID 27992217; settings: cited from earlier work
[13] = Trypanosoma brucei, selected hit compounds, Table 1, read-out: T. brucei EC50
[14] = CRL-8155 cells (lymphoblasts), lymphocytic cell line CRL-8155, read-out: Mammalian CC50
[15] = Trypanosoma brucei, Figure 3, Scaffold 1 optimization, read-out: T. brucei EC50
[16] = CRL-8155 cells (lymphoblasts), Figure 3, Scaffold 1 optimization, read-out: CC50
[17] = brain and plasma, brain to plasma ratio at 60 min following IP dose
[18] = brain and plasma, intraperitoneal, Figure 3, read-out: Brain:Plasma
[19] = lymphocytic cell line CRL-8155, read-out: Mammalian CC50
[20] = in vivo, brain to plasma ratio at 60 min following IP dose
[21] = Trypanosoma brucei, Figures 4 and 5, read-out: T. brucei EC50
[22] = in vivo, Figures 4 and 5, read-out: Brain:Plasma ratio

SMILES: O=C(Nc1ccc(F)c(-c2nc3ncccc3o2)c1)c1ccco1 [Site I: F]
- EC50 [1, 15]: 80 nM
- CC50 at 48 h [2, 16]: 99700 nM
- half-life [4]: 42 s

SMILES: COc1ccc(-n2nc(C(=O)NCC(=O)N3CCCC(C)C3)c3ccccc3c2=O)cc1Cl (stereo not shown) [Scaffold 7]
- EC50 [1, 13]: 657 nM
- CC50 at 48 h [2, 14]: > 50000 nM
- Kp at 60 min [3, 17]: 0.587

SMILES: O=C(Nc1ccc(Cl)c(-c2nc3ncccc3o2)c1)c1ccco1 [Scaffold 1]
- EC50 [1, 15]: 220 nM
- EC50 [1, 13]: 218 nM
- CC50 at 48 h ([2]; Figure 3, Scaffold 1 optimization, read-out: CC50): 50000 nM
- CC50 at 48 h [2, 19]: > 50000 nM
- Kp at 60 min [3, 20]: 0.547
- Mouse microsome t½ [6]: 48 s

SMILES: O=C(Nc1ccc(Cl)c(-c2nc3cc(Br)cnc3[nH]2)c1)c1ccco1 [Site III: as shown]
- EC50 [1, 15]: 50 nM
- CC50 at 48 h [2, 16]: 200000 nM
- half-life [4]: 48 s

SMILES: Fc1ccccc1C1C=C(c2cccnc2)Nc2nnnn21 (stereo not shown) [Scaffold 8]
- EC50 [1, 13]: 214 nM
- CC50 at 48 h [2]: 14300 nM
- Kp at 15 min ([8]; in vivo, brain to plasma ratio at 15 min following IP dose (Scaffold 8), read-out: B/P Ratio (Mouse)): 7.11

SMILES: COc1cc(N2C(=O)CN(Cc3ccc(F)cc3Cl)C2=S)ccc1N(C)C [BA-738]
- EC50 [1, 21]: 1.9 nM
- CC50 at 48 h ([2]; CRL-8155 cells (lymphoblasts), Figure 5, read-out: Mammalian cell CC50): > 50000 nM
- Kp at 1 h ([3]; brain and plasma, intraperitoneal, Figures 4 and 5, read-out: Brain:Plasma ratio): 1.68
- cures in the chronic infection model [10]: 20 % of mice
- outcome in acute T. brucei infection in mice [11]: cured mice
- Mouse liver microsome t½ ([4]; Figures 4 and 5): 660 s

SMILES: O=C(Nc1ccc2sc(-c3ccc(F)c(F)c3)nc2c1)N1CC[C@H](F)C1 [Scaffold 45DAP076]
- EC50 [1, 21]: 35 nM
- Kp at 1 h [3, 22]: 4
- activity in the chronic T. brucei infection model [12]: curative activity
- half-life [4]: > 3600 s

SMILES: Cc1nn2c(NCCCO)c3c(nc2c1-c1cccs1)CCC3 [Scaffold 6]
- EC50 [1, 13]: 307 nM
- CC50 at 48 h [2, 14]: > 100000 nM
- Kp at 60 min [3, 17]: 0.727

SMILES: CCn1cc(CN2CCCC(C(=O)Nc3ccc(-c4nc5ccccc5[nH]4)cc3)C2)cn1 (stereo not shown) [Scaffold 10]
- EC50 [1, 13]: 2440 nM
- Kp at 60 min [3, 17]: 0.224

SMILES: O=C(NCCc1nc(-c2ccccc2)cs1)c1ccccc1 [Scaffold 2]
- CC50 at 48 h [2, 19]: > 50000 nM
- Kp at 1 h [3, 22]: 0.3
- Kp at 60 min [3, 20]: 0.3

More lines, main results first:

- EC50 [1, 13]: 650 nM
- B/P Ratio (Mouse) ([3]; brain to plasma ratio at 60 min following IP dose): No plasma exposure
SMILES: O=C(CSc1nc2scc(-c3ccccc3)c2c(=O)n1-c1ccccc1)Nc1ccccc1F [Scaffold 16]
- CC50 at 48 h [2, 14]: > 100000 nM
- plasma and brain levels ([3]; 60-min time point): nearly undetectable plasma and brain levels

- EC50 [1, 13]: 1500 nM
- Kp at 60 min [3, 17]: 0
SMILES: COc1cccc(C2N(c3ccccc3)N=C(C(C)=O)N2c2ccc(C)c(C)c2)c1OCc1ccccc1 (stereo not shown) [Scaffold 15]
- CC50 at 48 h [2, 14]: 33000 nM

- EC50 [1, 15]: 100 nM
- half-life [4]: 42 s
SMILES: O=C(c1ccco1)N(C(=O)c1ccco1)c1ccc(Cl)c(-c2nc3ncccc3o2)c1 [Site V: as shown]
- CC50 at 48 h [2, 16]: 86000 nM

- EC50 ([1]; positive control included in each assay, read-out: EC50 of positive control): 1.2 ± 0.3 nM
SMILES: N=C(N)c1ccc(OCCCCCOc2ccc(C(=N)N)cc2)cc1 [Pentamidine isothionate, reference compound]

- EC50 [1, 13]: 874 nM
- Kp at 60 min [3, 17]: 2.86
SMILES: O=c1c2ccccc2nc(SCc2cccnc2)n1Cc1ccco1 [Scaffold 3]
- CC50 at 48 h [2, 14]: 38000 nM

- EC50 [1, 15]: 4 nM
- Kp at 1 h [3, 18]: 0.04
- AUC [5]: 1236 µmol·min
SMILES: O=C(Nc1ccc(F)c(-c2nc3cc(-c4ccccc4)cnc3[nH]2)c1)N1CCCC1 [HB-175]

- Kp at 1 h [3, 18]: 0.23
- half-life [7]: > 1.5 h
- AUC [5]: 55901 µmol·min
- half-life [4]: > 5400 s
SMILES: Cc1nc(C)c(C(=O)Nc2ccc(F)c(-c3nc4ncc(-c5ccccc5Cl)cn4n3)c2)o1 [PN-302]
- CC50 at 48 h [2, 16]: > 50000 nM

- EC50 [1, 13]: 1000 nM
- Kp at 60 min [3, 17]: 0.02
SMILES: Cc1cc(C)c(NC(=O)c2cc(S(=O)(=O)N3CCOCC3)cn2C)c(C)c1 [Scaffold 13]
- CC50 at 48 h [2, 14]: > 100000 nM

- EC50 [1, 13]: 346 nM
SMILES: COc1ccc(N2C(=O)CN(Cc3ccccc3)C2=S)cc1Cl [Scaffold 9]
- CC50 at 48 h [2, 14]: > 50000 nM
- B/P Ratio (Mouse) [9]: 0.743 ***

- EC50 [1, 13]: 3090 nM
- Kp at 60 min [3, 17]: 0.09
- Kp at 60 min ([8]; brain and plasma, intraperitoneal, mice sacrificed at 60 min, n = 3, read-out: brain levels as percent of plasma levels): 0.09
SMILES: O=c1nc(/C=C/c2cn(Cc3ccccc3F)c3ccccc23)cc(C(F)(F)F)[nH]1 [Scaffold 11]

- EC50 [1, 13]: 708 nM
- Kp at 60 min [3, 17]: 0.01
SMILES: COCCN1C(=O)c2ccccc2C(C(=O)Nc2ccc(Oc3ccccc3)cc2)C1c1ccc(F)cc1 (stereo not shown) [Scaffold 14]
- CC50 at 48 h [2, 14]: > 100000 nM

- EC50 [1, 13]: 1700 nM
- Kp at 60 min [3, 17]: 0.267
SMILES: COc1ccc(CNC(=O)CN(c2cccc(C)c2C)S(=O)(=O)c2ccccc2)cc1 [Scaffold 12]
- CC50 at 48 h [2, 14]: > 100000 nM

- EC50 [1, 13]: 3500 nM
- Kp at 60 min [3, 17]: 0
SMILES: COc1ccc(-c2c(C#N)c(SCc3ccccc3)nc(C)c2C(=O)Nc2ccccc2)cc1 [Scaffold 17]
- CC50 at 48 h [2, 14]: > 100000 nM

- EC50 [1, 15]: 80 nM
- half-life [4]: 48 s
SMILES: O=C(Nc1ccc(Cl)c(-c2nc3ncccc3o2)c1)N1CCCC1 [Site II: pyrrolidine]
- CC50 at 48 h [2, 16]: 73000 nM
